The results in this text go back to PubChem BioAssay (NCI).

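Tested at 5 concentrations; 48 h exposure; 96-well plates; endpoints linearly interpolated, else capped at highest concentration. The concentration for 50% growth inhibition is given as GI50. The concentration for full growth arrest is given as TGI.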 Bounds are passed on as bounds.

Test systems include OVCAR-5 ovarian; KM12 colon; A549 NSCLC; RXF 393 renal; SF-268 CNS; SF-295 CNS; HOP-92 NSCLC; SW-620 colon; COLO 205 colon; NCI/ADR-RES ovarian.
Assay in all cases: NCI anticancer screen, dose series, 48 h

In the case of `CC1(C)OB(c2ccc(N(CCOS(C)(=O)=O)CCOS(C)(=O)=O)cc2)OC1(C)C`, the GI50 is 25.4 µM in the experiment with OVCAR-5 ovarian; 26.8 µM with KM12 colon; 15.1 µM in the experiment with A549 NSCLC; 24.6 µM in the experiment with RXF 393 renal; 23 µM with SF-268 CNS; 12.9 µM in the experiment with SF-295 CNS. For the same compound, the GI50 with HOP-92 NSCLC was 10.2 µM; with SW-620 colon, 17.1 µM; in the experiment with COLO 205 colon it was 24.1 µM; in the experiment on NCI/ADR-RES ovarian, 15.8 µM. Further, the TGI was 48.3 µM in the experiment on OVCAR-5 ovarian; over 85 µM in the experiment on KM12 colon; over 85.8 µM in the experiment on A549 NSCLC; over 67.4 µM in the experiment with RXF 393 renal; over 83.7 µM in the experiment on SF-268 CNS; over 55 µM in the experiment with SF-295 CNS. Moreover, the TGI in the experiment on HOP-92 NSCLC was 48.6 µM; with SW-620 colon, over 100 µM; in the experiment on COLO 205 colon it was over 100 µM; in the experiment with NCI/ADR-RES ovarian, 65.2 µM.
As for `Cc1cccc2c(C3=C(c4cn(C)c5ccccc45)C(=O)NC3=O)cn(C)c12`, the GI50 is over 25 µM with OVCAR-5 ovarian; over 20.8 µM with KM12 colon; over 25 µM in the experiment with A549 NSCLC; 6.16 µM with RXF 393 renal; 13.6 µM in the experiment on SF-268 CNS; over 24 µM in the experiment with SF-295 CNS. Also, the GI50 is 9.91 µM in the experiment with HOP-92 NSCLC, 12.7 µM with SW-620 colon, over 16.9 µM in the experiment on COLO 205 colon and over 19.6 µM in the experiment with NCI/ADR-RES ovarian. The TGI in the experiment with OVCAR-5 ovarian was over 25 µM; in the experiment with KM12 colon it was over 25 µM; with A549 NSCLC, over 25 µM; in the experiment with RXF 393 renal, 24.4 µM; in the experiment on SF-268 CNS, over 25 µM; with SF-295 CNS it was over 25 µM. Further, the TGI in the experiment on HOP-92 NSCLC, in the experiment with SW-620 colon, in the experiment on COLO 205 colon and with NCI/ADR-RES ovarian was over 25 µM throughout.
Take `Cc1nc2ccccn2c1NC(=O)NN1C(=O)CSC1c1ccc(Cl)cc1` (stereo not drawn): the GI50 in the experiment with OVCAR-5 ovarian, in the experiment on KM12 colon, in the experiment with A549 NSCLC, with RXF 393 renal, with SF-268 CNS and with SF-295 CNS was over 100 µM each time. The GI50 in the experiment on HOP-92 NSCLC, in the experiment with SW-620 colon, in the experiment on COLO 205 colon and in the experiment with NCI/ADR-RES ovarian was over 100 µM each time. In addition, the TGI in the experiment on OVCAR-5 ovarian, with KM12 colon, in the experiment on A549 NSCLC, with RXF 393 renal, in the experiment on SF-268 CNS and in the experiment with SF-295 CNS was over 100 µM throughout. Besides, the TGI in the experiment with HOP-92 NSCLC, in the experiment with SW-620 colon, in the experiment on COLO 205 colon and in the experiment on NCI/ADR-RES ovarian was over 100 µM in each case.
Regarding `CN(C)c1ccc(C(=S)c2ccc(N(C)C)cc2)cc1`, the GI50 was 39.1 µM in the experiment on OVCAR-5 ovarian; 3.88 µM with KM12 colon; 7.81 µM in the experiment on A549 NSCLC; 4.81 µM with RXF 393 renal; 10.1 µM in the experiment on SF-268 CNS; 4.73 µM in the experiment with SF-295 CNS. In addition, the GI50 in the experiment on HOP-92 NSCLC was 9.01 µM; in the experiment with SW-620 colon, 3.98 µM; in the experiment on COLO 205 colon, 6.83 µM; in the experiment with NCI/ADR-RES ovarian it was 2.4 µM. The TGI was over 100 µM in the experiment on OVCAR-5 ovarian; over 100 µM in the experiment on KM12 colon; over 100 µM in the experiment with A549 NSCLC; 42.9 µM in the experiment on RXF 393 renal; over 100 µM with SF-268 CNS; over 100 µM in the experiment with SF-295 CNS. For the same compound, the TGI is 86.8 µM in the experiment on HOP-92 NSCLC, over 100 µM in the experiment with SW-620 colon, 59 µM in the experiment with COLO 205 colon and 7.66 µM with NCI/ADR-RES ovarian.
Turning to `C[C@@H]1CC[C@H]2[C@@H](C)C(O)O[C@@H]3O[C@]4(C)CC[C@@H]1[C@]32OO4` (stereo partly drawn), the GI50 in the experiment on OVCAR-5 ovarian is 0.735 µM; in the experiment with KM12 colon it was 0.213 µM; in the experiment with A549 NSCLC, 1.74 µM; in the experiment with RXF 393 renal, 1.15 µM; with SF-268 CNS, 1.4 µM; in the experiment with SF-295 CNS, 0.625 µM. Further, the GI50 in the experiment on HOP-92 NSCLC was 0.716 µM; in the experiment with SW-620 colon, 0.347 µM; in the experiment with COLO 205 colon, 0.718 µM; in the experiment on NCI/ADR-RES ovarian it was 0.581 µM. Further, the TGI in the experiment with OVCAR-5 ovarian was 39.4 µM; in the experiment on KM12 colon, 8.78 µM; in the experiment with A549 NSCLC it was 13.5 µM; with RXF 393 renal it was 17.8 µM; in the experiment with SF-268 CNS it was over 62.7 µM; in the experiment on SF-295 CNS, 35.4 µM. For the same compound, the TGI came out at 7.05 µM in the experiment on HOP-92 NSCLC, 17 µM in the experiment with SW-620 colon, 3 µM in the experiment with COLO 205 colon and 12 µM in the experiment with NCI/ADR-RES ovarian.
Consider `COc1ccc(-c2nn(-c3cccc(Cl)c3)cc2/C=C2\NC(=S)N(c3ccc(Cl)cc3)C2=O)cc1`, for which the GI50 was 6.31 µM with OVCAR-5 ovarian; 10.1 µM with KM12 colon; 3.35 µM in the experiment with A549 NSCLC; 3.02 µM in the experiment with RXF 393 renal; 7.41 µM in the experiment with SF-268 CNS; 4.63 µM in the experiment with SF-295 CNS. The GI50 in the experiment with HOP-92 NSCLC was 1.84 µM; with SW-620 colon it was 8.51 µM; in the experiment on COLO 205 colon, 5.59 µM; with NCI/ADR-RES ovarian it was 5.51 µM. For the same compound, the TGI is over 25 µM in the experiment with OVCAR-5 ovarian; over 25 µM with KM12 colon; 9.73 µM in the experiment with A549 NSCLC; 9.97 µM in the experiment on RXF 393 renal; over 25 µM in the experiment on SF-268 CNS; 12 µM with SF-295 CNS. The TGI was 8.07 µM with HOP-92 NSCLC, over 25 µM in the experiment with SW-620 colon, 11 µM in the experiment with COLO 205 colon and 14.5 µM in the experiment with NCI/ADR-RES ovarian.
In the case of `CC/C=C\C[C@H]1C/C=C2/C(=O)C=C[C@H]2C/C=C\CCCC(=O)O1`, the GI50 in the experiment with OVCAR-5 ovarian is 3.99 µM; in the experiment on A549 NSCLC, 2.66 µM; in the experiment with RXF 393 renal, 1.91 µM; in the experiment on SF-268 CNS it was 3.77 µM; in the experiment on SF-295 CNS it was 2.62 µM; in the experiment on HOP-92 NSCLC it was 2.53 µM. Also, the results for the GI50 in the experiment with SW-620 colon, in the experiment with COLO 205 colon and in the experiment on NCI/ADR-RES ovarian were 2.58 µM, 1.87 µM and 1.47 µM, respectively. Also, the TGI was found to be 16.8 µM with OVCAR-5 ovarian; 10.3 µM in the experiment with A549 NSCLC; 8.01 µM in the experiment on RXF 393 renal; 17.8 µM in the experiment with SF-268 CNS; 9.33 µM with SF-295 CNS; 10.1 µM in the experiment on HOP-92 NSCLC. Further, the TGI with SW-620 colon was 10.4 µM; in the experiment with COLO 205 colon, 6.7 µM; with NCI/ADR-RES ovarian, over 50 µM.
